Assay results published in ChEMBL document CHEMBL5291721, “A preclinical secondary pharmacology resource illuminates target-adverse drug reaction associations of marketed drugs” (Nat Commun, 2023).

What was measured:
[1] = molecular target: Sodium-dependent noradrenaline transporter (Homo sapiens, UniProt P23975)
[2] = molecular target: T1, Alpha-2C adrenergic receptor (Homo sapiens, UniProt P18825); type: functional
T1 sequence (P18825 whole entry): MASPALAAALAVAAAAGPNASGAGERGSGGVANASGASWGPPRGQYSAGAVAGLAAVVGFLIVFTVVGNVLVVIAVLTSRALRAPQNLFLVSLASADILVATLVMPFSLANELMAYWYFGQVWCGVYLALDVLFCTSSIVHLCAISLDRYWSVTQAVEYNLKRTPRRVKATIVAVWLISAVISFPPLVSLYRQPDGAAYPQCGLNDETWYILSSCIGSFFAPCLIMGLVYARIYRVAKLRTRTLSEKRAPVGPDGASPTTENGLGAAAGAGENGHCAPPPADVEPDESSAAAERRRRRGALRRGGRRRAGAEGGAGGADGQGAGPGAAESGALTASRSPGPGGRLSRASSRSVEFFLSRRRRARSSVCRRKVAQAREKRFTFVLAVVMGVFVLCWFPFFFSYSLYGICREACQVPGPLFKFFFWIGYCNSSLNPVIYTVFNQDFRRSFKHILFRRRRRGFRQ

[3] = molecular target: Adenosine receptor A2a (Homo sapiens, UniProt P29274)
[4] = molecular target: T2, 5-hydroxytryptamine receptor 2B (Homo sapiens, UniProt P41595); type: functional, cell-based
[5] = molecular target: T3, Progesterone receptor (Homo sapiens, UniProt P06401); type: functional
T3 sequence (P06401 whole entry): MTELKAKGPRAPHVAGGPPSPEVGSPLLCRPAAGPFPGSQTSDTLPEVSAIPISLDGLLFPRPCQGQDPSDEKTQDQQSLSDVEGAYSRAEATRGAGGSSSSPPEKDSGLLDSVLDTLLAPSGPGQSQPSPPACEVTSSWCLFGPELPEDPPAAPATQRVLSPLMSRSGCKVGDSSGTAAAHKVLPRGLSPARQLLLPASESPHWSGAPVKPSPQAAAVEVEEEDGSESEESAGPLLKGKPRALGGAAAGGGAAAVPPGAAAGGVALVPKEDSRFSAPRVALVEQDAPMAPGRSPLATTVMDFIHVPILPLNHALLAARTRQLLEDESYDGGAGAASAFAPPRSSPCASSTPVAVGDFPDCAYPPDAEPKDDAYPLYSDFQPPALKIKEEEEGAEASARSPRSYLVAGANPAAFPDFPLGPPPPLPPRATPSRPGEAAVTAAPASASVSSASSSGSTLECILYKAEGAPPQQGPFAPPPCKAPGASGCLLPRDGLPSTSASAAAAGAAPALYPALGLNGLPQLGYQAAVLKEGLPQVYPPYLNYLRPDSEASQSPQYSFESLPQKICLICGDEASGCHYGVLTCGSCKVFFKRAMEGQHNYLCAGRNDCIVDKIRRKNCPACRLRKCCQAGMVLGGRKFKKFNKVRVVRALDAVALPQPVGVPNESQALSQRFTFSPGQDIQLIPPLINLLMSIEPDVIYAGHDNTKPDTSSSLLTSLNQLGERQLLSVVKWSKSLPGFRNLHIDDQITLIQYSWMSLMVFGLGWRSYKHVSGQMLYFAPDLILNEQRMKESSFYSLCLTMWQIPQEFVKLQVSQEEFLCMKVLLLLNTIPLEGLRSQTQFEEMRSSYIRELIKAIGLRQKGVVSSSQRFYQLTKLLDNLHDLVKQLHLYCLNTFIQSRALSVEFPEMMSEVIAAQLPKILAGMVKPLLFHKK

[6] = molecular target: T4, Muscarinic acetylcholine receptor M2 (Homo sapiens, UniProt P08172); type: functional, cell-based
T4 sequence (P08172 whole entry): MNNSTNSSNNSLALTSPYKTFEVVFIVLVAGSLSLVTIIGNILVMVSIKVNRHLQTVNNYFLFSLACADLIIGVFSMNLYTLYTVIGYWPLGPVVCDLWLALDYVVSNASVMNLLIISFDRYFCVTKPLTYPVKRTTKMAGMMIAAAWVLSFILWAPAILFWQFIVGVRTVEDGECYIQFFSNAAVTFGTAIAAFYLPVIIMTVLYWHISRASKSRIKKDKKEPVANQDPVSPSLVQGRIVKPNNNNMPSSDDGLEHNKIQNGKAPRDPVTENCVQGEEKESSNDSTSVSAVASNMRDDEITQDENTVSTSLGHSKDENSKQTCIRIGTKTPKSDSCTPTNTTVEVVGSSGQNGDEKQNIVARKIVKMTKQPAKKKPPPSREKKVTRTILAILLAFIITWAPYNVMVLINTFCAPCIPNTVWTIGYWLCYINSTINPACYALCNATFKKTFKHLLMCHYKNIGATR

[7] = molecular target: T5, Endothelin-1 receptor (Homo sapiens, UniProt P25101)
T5 sequence (P25101 whole entry): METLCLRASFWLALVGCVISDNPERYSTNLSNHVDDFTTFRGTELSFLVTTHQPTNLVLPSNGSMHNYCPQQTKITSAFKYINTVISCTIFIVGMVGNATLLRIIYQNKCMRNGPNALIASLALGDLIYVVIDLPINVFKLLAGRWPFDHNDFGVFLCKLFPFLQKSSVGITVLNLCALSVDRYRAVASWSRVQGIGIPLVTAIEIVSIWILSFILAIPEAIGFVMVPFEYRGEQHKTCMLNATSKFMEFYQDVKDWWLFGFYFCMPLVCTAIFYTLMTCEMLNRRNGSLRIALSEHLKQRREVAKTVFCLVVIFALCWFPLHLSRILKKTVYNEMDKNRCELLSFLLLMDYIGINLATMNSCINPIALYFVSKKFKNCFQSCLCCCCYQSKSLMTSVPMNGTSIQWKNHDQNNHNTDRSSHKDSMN

[8] = molecular target: Histamine H3 receptor (Homo sapiens, UniProt Q9Y5N1)
[9] = molecular target: Kappa-type opioid receptor (Homo sapiens, UniProt P41145)
[10] = molecular target: Cannabinoid receptor 1 (Homo sapiens, UniProt P21554); type: functional, cell-based
[11] = molecular target: T2, 5-hydroxytryptamine receptor 2B; type: functional, cell-based; remark: listed apart in the source
[12] = molecular target: Growth hormone secretagogue receptor type 1 (Homo sapiens, UniProt Q92847)
[13] = molecular target: Motilin receptor (Homo sapiens, UniProt O43193)
[14] = molecular target: Voltage-dependent L-type calcium channel subunit alpha-1C (Rattus norvegicus, UniProt P22002); type: functional
Also: assay procedure not described here.

Sequence of Growth hormone secretagogue receptor type 1 (Q92847 whole entry): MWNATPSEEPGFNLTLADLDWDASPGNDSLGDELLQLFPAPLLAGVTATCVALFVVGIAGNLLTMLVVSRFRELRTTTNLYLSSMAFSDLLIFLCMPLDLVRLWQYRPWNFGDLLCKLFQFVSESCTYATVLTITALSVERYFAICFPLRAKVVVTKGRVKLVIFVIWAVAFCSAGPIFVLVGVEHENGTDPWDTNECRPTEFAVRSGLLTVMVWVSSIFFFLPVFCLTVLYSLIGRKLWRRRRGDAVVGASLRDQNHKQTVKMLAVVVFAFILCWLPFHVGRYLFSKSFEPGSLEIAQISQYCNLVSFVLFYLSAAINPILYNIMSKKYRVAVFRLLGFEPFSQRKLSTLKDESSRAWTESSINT
Sequence of Motilin receptor (O43193 whole entry): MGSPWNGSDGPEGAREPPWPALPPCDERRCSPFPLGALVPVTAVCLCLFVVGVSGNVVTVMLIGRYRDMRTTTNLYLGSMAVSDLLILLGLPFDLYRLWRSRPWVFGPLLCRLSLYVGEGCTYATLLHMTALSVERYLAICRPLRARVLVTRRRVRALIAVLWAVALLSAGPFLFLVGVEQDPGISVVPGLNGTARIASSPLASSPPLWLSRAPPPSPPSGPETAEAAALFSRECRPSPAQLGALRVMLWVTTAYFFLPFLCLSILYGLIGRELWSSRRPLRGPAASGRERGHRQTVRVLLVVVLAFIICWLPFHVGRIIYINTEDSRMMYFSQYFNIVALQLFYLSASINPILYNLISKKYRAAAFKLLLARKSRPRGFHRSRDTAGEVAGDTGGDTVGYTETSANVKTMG
Sequence of Histamine H3 receptor (Q9Y5N1 whole entry): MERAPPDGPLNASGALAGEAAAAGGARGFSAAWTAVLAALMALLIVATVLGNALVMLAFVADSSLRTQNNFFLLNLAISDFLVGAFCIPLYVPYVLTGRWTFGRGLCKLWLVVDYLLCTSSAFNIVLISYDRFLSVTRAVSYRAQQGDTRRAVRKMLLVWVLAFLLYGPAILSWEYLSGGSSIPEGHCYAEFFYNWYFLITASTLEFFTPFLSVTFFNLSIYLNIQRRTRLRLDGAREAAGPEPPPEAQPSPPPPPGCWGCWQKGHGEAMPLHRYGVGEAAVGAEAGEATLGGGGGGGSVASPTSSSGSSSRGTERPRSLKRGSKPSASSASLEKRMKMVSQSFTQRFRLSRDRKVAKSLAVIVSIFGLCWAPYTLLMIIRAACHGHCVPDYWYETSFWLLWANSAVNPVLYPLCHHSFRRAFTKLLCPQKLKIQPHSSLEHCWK
T2 sequence (P41595 whole entry): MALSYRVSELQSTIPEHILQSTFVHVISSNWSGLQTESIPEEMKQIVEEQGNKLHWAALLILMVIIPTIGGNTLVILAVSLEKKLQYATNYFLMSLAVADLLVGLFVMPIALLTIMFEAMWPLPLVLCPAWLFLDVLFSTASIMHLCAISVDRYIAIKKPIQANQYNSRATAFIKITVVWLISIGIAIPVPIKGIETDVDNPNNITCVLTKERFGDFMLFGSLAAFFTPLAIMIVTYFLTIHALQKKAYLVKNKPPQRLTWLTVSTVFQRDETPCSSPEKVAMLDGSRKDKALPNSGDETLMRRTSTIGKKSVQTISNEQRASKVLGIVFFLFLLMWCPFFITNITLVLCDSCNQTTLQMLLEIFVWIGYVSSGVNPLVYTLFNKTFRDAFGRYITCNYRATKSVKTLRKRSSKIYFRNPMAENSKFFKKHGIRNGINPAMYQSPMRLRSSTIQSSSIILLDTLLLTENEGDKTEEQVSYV
Sequence of Sodium-dependent noradrenaline transporter (P23975 whole entry): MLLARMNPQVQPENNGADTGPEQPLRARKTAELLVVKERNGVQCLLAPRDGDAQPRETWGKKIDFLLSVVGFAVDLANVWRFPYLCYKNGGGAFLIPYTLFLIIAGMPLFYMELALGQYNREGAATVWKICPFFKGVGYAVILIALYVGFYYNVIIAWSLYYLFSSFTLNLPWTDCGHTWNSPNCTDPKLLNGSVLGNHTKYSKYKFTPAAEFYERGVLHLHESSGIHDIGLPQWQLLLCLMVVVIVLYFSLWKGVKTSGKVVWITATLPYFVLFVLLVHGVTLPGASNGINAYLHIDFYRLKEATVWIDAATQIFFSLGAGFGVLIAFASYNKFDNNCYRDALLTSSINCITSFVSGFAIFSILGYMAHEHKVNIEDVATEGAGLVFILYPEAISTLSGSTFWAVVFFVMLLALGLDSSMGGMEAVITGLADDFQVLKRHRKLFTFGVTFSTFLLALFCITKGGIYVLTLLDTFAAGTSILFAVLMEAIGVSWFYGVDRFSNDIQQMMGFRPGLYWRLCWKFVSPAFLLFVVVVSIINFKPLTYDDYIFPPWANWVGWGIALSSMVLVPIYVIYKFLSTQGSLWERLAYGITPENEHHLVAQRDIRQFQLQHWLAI
Sequence of Adenosine receptor A2a (P29274 whole entry): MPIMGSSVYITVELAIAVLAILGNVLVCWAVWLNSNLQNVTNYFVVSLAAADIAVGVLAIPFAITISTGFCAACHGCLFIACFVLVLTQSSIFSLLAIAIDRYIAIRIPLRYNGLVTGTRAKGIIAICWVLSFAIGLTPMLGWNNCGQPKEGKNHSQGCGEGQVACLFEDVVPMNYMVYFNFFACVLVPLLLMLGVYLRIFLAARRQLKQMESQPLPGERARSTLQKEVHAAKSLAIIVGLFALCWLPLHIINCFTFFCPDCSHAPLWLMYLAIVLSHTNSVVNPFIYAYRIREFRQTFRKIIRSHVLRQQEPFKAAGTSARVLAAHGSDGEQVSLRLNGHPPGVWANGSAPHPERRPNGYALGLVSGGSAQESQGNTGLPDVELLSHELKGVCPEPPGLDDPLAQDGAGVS
Sequence of Cannabinoid receptor 1 (P21554 whole entry): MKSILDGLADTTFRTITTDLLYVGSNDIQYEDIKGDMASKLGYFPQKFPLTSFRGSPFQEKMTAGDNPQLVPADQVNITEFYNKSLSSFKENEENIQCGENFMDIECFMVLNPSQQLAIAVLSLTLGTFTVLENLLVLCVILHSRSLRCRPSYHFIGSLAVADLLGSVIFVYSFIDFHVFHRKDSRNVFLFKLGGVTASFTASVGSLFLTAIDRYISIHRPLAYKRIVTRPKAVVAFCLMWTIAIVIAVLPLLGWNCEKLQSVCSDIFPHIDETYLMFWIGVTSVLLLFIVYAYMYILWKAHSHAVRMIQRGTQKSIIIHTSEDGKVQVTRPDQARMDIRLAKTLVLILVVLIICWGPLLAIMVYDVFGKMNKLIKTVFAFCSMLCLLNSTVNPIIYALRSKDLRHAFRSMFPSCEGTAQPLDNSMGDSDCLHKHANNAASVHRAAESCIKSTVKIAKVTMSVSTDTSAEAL
Sequence of Kappa-type opioid receptor (P41145 whole entry): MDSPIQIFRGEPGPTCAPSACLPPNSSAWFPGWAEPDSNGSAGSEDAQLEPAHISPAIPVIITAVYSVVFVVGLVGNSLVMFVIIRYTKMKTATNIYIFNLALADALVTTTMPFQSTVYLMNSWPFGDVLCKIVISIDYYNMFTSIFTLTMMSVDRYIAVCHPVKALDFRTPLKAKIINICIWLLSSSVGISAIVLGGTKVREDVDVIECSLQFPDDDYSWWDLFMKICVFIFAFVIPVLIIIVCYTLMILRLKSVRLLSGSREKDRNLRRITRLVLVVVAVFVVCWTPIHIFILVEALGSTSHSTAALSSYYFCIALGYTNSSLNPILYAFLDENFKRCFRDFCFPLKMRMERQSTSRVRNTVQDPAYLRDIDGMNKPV

Structure (SMILES): COC(=O)c1ccc2c(c1)NC(=O)/C2=C(\Nc1ccc(N(C)C(=O)CN2CCN(C)CC2)cc1)c1ccccc1 [NINTEDANIB]
- AC50 [1]: > 30 µM
- AC50 [2]: > 30 µM
- AC50 [3]: 21 µM
- AC50 [4]: > 30 µM
- AC50 [5]: > 30 µM
- AC50 [6]: > 30 µM
- AC50 [7]: > 30 µM
- AC50 [8]: > 30 µM
- AC50 [9]: > 30 µM
- AC50 [10]: > 30 µM
- AC50 [11]: > 30 µM
- AC50 [12]: > 30 µM
- AC50 [13]: > 30 µM

Structure (SMILES): O=C(O)c1nn(Cc2ccc(Cl)cc2Cl)c2ccccc12 [LONIDAMINE]
- AC50 [1]: > 30 µM
- AC50 [2]: > 30 µM
- AC50 [3]: > 30 µM
- AC50 [4]: > 30 µM
- AC50 [5]: > 30 µM
- AC50 [6]: > 30 µM
- AC50 [7]: > 30 µM
- AC50 [8]: > 30 µM
- AC50 [9]: > 30 µM
- AC50 [10]: > 30 µM
- AC50 [11]: > 30 µM
- AC50 [12]: > 30 µM
- AC50 [13]: > 30 µM

Structure (SMILES): CCc1ccc(C(=O)C(C)CN2CCCCC2)cc1 (stereo unspecified) [EPERISONE]
- AC50 [1]: > 30 µM
- AC50 [2]: 2.09 µM
- AC50 [3]: > 30 µM
- AC50 [4]: > 30 µM
- AC50 [5]: > 30 µM
- AC50 [6]: 2.2 µM
- AC50 [7]: > 30 µM
- AC50 [8]: 1.3 µM
- AC50 [9]: > 30 µM
- AC50 [11]: > 30 µM
- AC50 [12]: > 30 µM
- AC50 [13]: > 30 µM
- AC50 [14]: > 30 µM

Structure (SMILES): CCCCCCCC(=O)CC[C@@H]1[C@@H](C/C=C\CCCC(=O)O)[C@@H](O)C[C@H]1O [UNOPROSTONE]
- AC50 [1]: > 30 µM
- AC50 [2]: > 30 µM
- AC50 [3]: > 30 µM
- AC50 [4]: > 30 µM
- AC50 [5]: > 30 µM
- AC50 [6]: > 30 µM
- AC50 [7]: > 30 µM
- AC50 [8]: > 30 µM
- AC50 [9]: > 30 µM
- AC50 [10]: > 30 µM
- AC50 [11]: > 30 µM
- AC50 [12]: > 30 µM
- AC50 [13]: > 30 µM

Structure (SMILES): CCN1C(=O)NC(c2ccccc2)C1=O (stereo unspecified) [ETHOTOIN]
- AC50 [1]: > 30 µM
- AC50 [2]: > 30 µM
- AC50 [3]: > 30 µM
- AC50 [4]: > 30 µM
- AC50 [5]: > 30 µM
- AC50 [6]: > 30 µM
- AC50 [7]: > 30 µM
- AC50 [8]: > 30 µM
- AC50 [9]: > 30 µM
- AC50 [10]: > 30 µM
- AC50 [11]: > 30 µM
- AC50 [12]: > 30 µM
- AC50 [13]: > 30 µM

Structure (SMILES): O=C(O)c1ccc2nc(-c3cc(Cl)cc(Cl)c3)oc2c1
- AC50 [1]: > 30 µM
- AC50 [2]: > 30 µM
- AC50 [3]: > 30 µM
- AC50 [4]: > 30 µM
- AC50 [5]: > 30 µM
- AC50 [6]: > 30 µM
- AC50 [7]: > 30 µM
- AC50 [8]: > 30 µM
- AC50 [9]: > 30 µM
- AC50 [11]: > 30 µM
- AC50 [12]: > 30 µM
- AC50 [13]: > 30 µM
- AC50 [14]: > 30 µM

Structure (SMILES): CC1=C(C(=O)O)N2C(=O)[C@@H](NC(=O)[C@H](N)C3=CCC=CC3)[C@H]2SC1 [CEPHRADINE]
- AC50 [1]: > 30 µM
- AC50 [2]: > 30 µM
- AC50 [3]: > 30 µM
- AC50 [4]: > 30 µM
- AC50 [5]: 22 µM
- AC50 [6]: > 30 µM
- AC50 [7]: > 30 µM
- AC50 [8]: > 30 µM
- AC50 [9]: > 30 µM
- AC50 [10]: > 30 µM
- AC50 [11]: > 30 µM
- AC50 [12]: > 30 µM
- AC50 [13]: > 30 µM
